Patent publication US20030079246A1, “Herbicide resistant plants” (priority 1999, published 2003)
Counter-ions that a name gives are not always drawn.

Biological target: mutant form of rice EPSPS
Assay: EPSPS enzyme assay, inhibition of purified mutant rice EPSPS by glyphosate
Type: biochemical
From the text: The resultant products are gel purified and placed into a tube in eqi-molar concentrations to serve as a template for another round of PCRs with the rice 5′ and 3′ oligos. The resultant products are cloned into pCRBlunt II using Invitrogens Zero Blunt TOPO kit. It is confirmed that the DNA sequence of the insert and its predicted open reading frame correspond to that of the predicted mature chloroplastic rice EPSPS protein (with the exception of the presence of an initiating Met) and also that the desired changes (the specific mutation of T to I and P to S at specific positions in the EPSPS sequence) are encoded. The thus cloned and verified rice epsps sequence is excised using Nde 1 and Xho 1 and the purified fragment cloned into pET24a (Novagen) digested similarly. The recombinant clones are introduced into BL21 (DE3), a codon optimised RP strain of E.coli supplied by Strategene. The EPSPS protein is expressed in this strain following addition of 1 mM IPTG to the fermenter medium (LB supplemented with 100 ug/ml Kanamycin). […]

Molecule `O=C(O)CNCP(=O)(O)O` [potassium salt of glyphosate] has an IC50 (at 40 μM PEP, 2 mM shikimate-3-Pi) of roughly 600 µM and a Ki (mutant EPSPS, read-out: estimated Ki value) of roughly 200 µM.
